Structures can show the parent of a compound that is named as a salt.

A word on the IC50: it is the concentration that inhibits the measured activity by half.

Sequence of hNav1.7 (Q15858 whole entry, looked up): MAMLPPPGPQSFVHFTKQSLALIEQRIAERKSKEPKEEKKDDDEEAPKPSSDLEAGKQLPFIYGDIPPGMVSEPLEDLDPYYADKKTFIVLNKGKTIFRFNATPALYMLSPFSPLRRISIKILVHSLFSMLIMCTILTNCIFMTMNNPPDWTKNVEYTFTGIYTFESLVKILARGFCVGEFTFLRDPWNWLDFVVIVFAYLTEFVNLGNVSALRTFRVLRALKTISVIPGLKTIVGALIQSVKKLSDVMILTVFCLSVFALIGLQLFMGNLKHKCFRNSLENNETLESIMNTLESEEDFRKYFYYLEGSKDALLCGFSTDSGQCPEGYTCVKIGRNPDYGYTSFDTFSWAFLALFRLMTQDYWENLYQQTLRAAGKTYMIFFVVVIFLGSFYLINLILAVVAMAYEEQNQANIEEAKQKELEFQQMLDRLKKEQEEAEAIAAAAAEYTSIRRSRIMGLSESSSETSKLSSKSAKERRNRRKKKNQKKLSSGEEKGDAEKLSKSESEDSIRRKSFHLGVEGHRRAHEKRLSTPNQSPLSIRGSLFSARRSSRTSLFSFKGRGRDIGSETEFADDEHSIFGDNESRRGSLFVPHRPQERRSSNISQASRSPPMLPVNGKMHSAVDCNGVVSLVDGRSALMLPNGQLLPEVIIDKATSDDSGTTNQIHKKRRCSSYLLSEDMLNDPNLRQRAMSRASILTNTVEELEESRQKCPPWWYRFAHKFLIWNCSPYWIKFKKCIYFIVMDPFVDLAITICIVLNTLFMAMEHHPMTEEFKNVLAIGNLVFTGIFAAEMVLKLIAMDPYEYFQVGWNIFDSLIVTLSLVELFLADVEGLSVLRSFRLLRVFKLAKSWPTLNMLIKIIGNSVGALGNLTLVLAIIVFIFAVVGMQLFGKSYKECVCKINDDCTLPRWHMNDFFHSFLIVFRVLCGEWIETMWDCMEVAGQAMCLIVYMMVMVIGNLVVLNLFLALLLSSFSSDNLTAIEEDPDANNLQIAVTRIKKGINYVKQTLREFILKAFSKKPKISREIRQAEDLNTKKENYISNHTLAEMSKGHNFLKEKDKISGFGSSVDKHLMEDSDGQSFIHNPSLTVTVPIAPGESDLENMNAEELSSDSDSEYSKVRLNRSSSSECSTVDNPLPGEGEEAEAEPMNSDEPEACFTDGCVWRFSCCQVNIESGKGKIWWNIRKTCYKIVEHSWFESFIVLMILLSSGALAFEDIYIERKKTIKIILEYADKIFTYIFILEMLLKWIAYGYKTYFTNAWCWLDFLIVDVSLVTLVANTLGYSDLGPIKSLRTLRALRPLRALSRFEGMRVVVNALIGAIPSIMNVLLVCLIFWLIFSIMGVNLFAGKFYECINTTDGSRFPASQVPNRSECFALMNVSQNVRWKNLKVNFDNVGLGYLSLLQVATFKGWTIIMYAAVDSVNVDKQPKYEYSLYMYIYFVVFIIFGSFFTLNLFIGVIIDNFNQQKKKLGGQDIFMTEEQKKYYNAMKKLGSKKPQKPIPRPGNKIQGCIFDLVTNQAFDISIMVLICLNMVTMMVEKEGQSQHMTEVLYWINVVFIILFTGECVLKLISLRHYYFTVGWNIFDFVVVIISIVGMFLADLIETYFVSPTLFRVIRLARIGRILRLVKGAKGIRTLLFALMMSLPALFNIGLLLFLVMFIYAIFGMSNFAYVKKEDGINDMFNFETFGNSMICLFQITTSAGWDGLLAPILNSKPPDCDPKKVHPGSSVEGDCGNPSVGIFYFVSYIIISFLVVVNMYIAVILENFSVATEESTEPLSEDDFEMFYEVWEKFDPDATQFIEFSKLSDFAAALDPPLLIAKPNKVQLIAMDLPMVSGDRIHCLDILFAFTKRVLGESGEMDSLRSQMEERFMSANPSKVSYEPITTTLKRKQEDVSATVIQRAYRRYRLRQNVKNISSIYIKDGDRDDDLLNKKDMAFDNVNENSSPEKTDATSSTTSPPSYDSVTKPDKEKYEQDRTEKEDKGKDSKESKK
Sequence of hNav1.7 (Q07699 whole entry partner, looked up): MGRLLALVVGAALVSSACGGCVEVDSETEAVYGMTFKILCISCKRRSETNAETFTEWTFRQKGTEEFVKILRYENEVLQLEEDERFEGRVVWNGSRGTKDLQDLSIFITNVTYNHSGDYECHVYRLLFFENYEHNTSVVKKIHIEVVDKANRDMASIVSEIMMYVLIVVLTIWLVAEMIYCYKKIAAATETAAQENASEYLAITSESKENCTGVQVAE

This test deals with hNav1.7 (Homo sapiens (Human), UniProt Q15858). In words: Tritiated compound binding to membranes from cells expressing hNav1.7 and the β1 subunit (Nav1.7 LBA EVO). Particulars: competitive binding vs [3H]compound, membranes with hNav1.7 and β1 subunit. As for the experimental part:
Example 64a. Tritiated Compound Binding to Membranes Isolated from Cells that Heterologously Express hNav1.7 and the β1 Subunit
Preparation of membranes containing recombinantly expressed sodium channels: Frozen recombinant cell pellets are thawed on ice and diluted to 4 times the cell pellet weight with ice cold 50 mM Tris HCl, pH 7.4 buffer. The cell suspensions are homogenized on ice using a motorized glass dounce homogeniser. Homogenates are further diluted 8.4 times with ice cold 50 mM Tris HCl, pH 7.4 buffer and then centrifuged at 200×g at 4° C. for 15 minutes. The supernatants are collected and centrifuged at 10000×g at 4° C. for 50 min. The pellets are then re-suspended in 100 mM NaCl, 20 mM Tris HCl, pH 7.4 buffer containing 1% v/v protease inhibitors (Calbiochem) and re-homogenized on ice. The homogenized membranes are then processed through a syringe equipped with a 26 gauge needle. Protein concentrations arer determined by Bradford Assay and the membranes are stored at −80° C.
Radioligand Binding Studies: Saturation experiments. A competitive NaV1.7 inhibitor having a methyl group is tritiated. Three tritiums are incorporated in place of methyl hydrogens to generate [^3H]compound. Binding of this radioligand is performed in 5 mL borosilicate glass test tubes at room temperature. Binding is initiated by adding membranes to increasing concentrations of [^3H]compound in 100 mM NaCl, 20 mM Tris HCl, pH 7.4 buffer containing 0.01% w/v bovine serum albumin (BSA) for 18 h. Non-specific binding is determined in the presence of 1 μM unlabeled compound. After 18 h, the reactants are filtered through GF/C glass fiber filters presoaked in 0.5% w/v polyethylene imine. Filters are washed with 15 mL ice cold 100 mM NaCl, 20 mM Tris HCl, pH7.4 buffer containing 0.25% BSA to separate bound from free ligand. [^3H]compound bound to filters is quantified by liquid scintillation counting.
Competitive binding experiments: Binding reactions are performed in 96-well polypropylene plates at room temperature for 18 h. In 360 μL, membranes are incubated with 100 pM [^3H]compound and increasing concentrations of Test Compound. Non-specific binding is defined in the presence of 1 μM unlabeled compound. Reactions are transferred and filtered through 96-well glass fiber/C filter plates presoaked with 0.5% polyethylene imine. The filtered reactions are washed 5 times with 200 μL ice cold buffer containing 0.25% BSA. Bound radioactivity is determined by liquid scintillation counting.
Data Analysis: For saturation experiments, non-specific binding is subtracted from total binding to provide specific binding and these values are recalculated in terms of pmol ligand bound per mg protein. Saturation curves are constructed and dissociation constants are calculated using the single site ligand binding model: Beq=(Bmax*X)/(X+Kd), where Beq is the amount of ligand bound at equilibrium, Bmax is the maximum receptor density, Kd is the dissociation constant for the ligand, and X is the free ligand concentration. For competition studies percent inhibition is determined and IC50 values are calculated using a 4 parameter logistic model (% inhibition=(A+((B−A)/(1+((x/C)^D)))) using XLfit, where A and B are the maximal and minimum inhibition respectively, C is the IC50 concentration and D is the (Hill) slope.
Example 64b. Tritiated Compound Binding to Membranes Isolated from Cells that Heterologous Express hNav1.7 and the β1 Subunit
Preparation of membranes containing recombinantly expressed sodium channels: Following the procedure described in 31a, and making modifications as required to: centrifuge supernatants at 100000×g instead of 10000×g; re-suspend pellets in a buffer containing 0.01% BSA in addition to 100 mM NaCl, 20 mM Tris HCl, pH 7.4 buffer, and 1% v/v […]; and storing membranes at −80° C. in single use aliquots instead of pooled. […]
`CCN(CC)[C@H]1C[C@@H](c2cccc(C(F)(F)F)c2)CC[C@@H]1Oc1ccc(S(=O)(=O)Nc2ccncn2)c(C)n1` [Example 47, 6-(((1S,2S,4S)-2-(Diethylamino)-4-(3-(trifluoromethyl)phenyl)cyclohexyl)oxy)-2-methyl-N-(pyrimidin-4-yl)pyridine-3-sulfonamide] gave an IC50 of 0.915 nM.

Regarding `CCc1nc(O[C@H]2CC[C@H](c3cccc(C(F)(F)F)c3)C[C@@H]2N(C)C)ccc1S(=O)(=O)Nc1ccncn1` [Example 33, 6-(((1S,2S,4S)-2-(Dimethylamino)-4-(3-(trifluoromethyl)phenyl)cyclohexyl)oxy)-2-ethyl-N-(pyrimidin-4-yl)pyridine-3-sulfonamide], the IC50 worked out at 1.54 nM.

As for `CN(C)[C@H]1C[C@@H](c2ccc(Cl)c(C(F)(F)F)c2)CC[C@@H]1Nc1ccc(S(=O)(=O)Nc2ccncn2)cn1` [Example 11, 6-(((1S,2S,4S)-4-(4-chloro-3-(trifluoromethyl)phenyl)-2-(dimethylamino)cyclohexyl)amino)-N-(pyrimidin-4-yl)pyridine-3-sulfonamide formate], the IC50 was determined as 16.6 nM.

As to `Cc1cc(S(=O)(=O)Nc2ccncn2)cnc1O[C@H]1CC[C@H](c2cccc(C(F)(F)F)c2)C[C@@H]1N(C)C` [Example 15, 6-(((1S,2S,4S)-2-(Dimethylamino)-4-(3-(trifluoromethyl)phenyl)cyclohexyl)oxy)-5-methyl-N-(pyrimidin-4-yl)pyridine-3-sulfonamide], the IC50 was 40.8 nM.

Take `CN(C)[C@H]1C[C@@H](c2cccc(C(F)(F)F)c2)CC[C@@H]1Oc1ccc(S(=O)(=O)Nc2ccncn2)cn1` [Example 1, 6-(((1S,2S,4S)-2-(Dimethylamino)-4-(3-(trifluoromethyl)phenyl)cyclohexyl)oxy)-N-(pyrimidin-4-yl)pyridine-3-sulfonamide]: the IC50 came to 28.2 nM.

`COc1cc(S(=O)(=O)Nc2ccncn2)cnc1O[C@H]1CC[C@H](c2cccc(C(F)(F)F)c2)C[C@@H]1N(C)C` [Example 61, 6-(((1S,2S,4S)-2-(Dimethylamino)-4-(3-(trifluoromethyl)phenyl)cyclohexyl)oxy)-5-methoxy-N-(pyrimidin-4-yl)pyridine-3-sulfonamide formate] had an IC50 of 1.9 nM.

`O=S(=O)(Nc1ccncn1)c1cnc(O[C@H]2CC[C@H](c3cccc(C(F)(F)F)c3)C[C@@H]2N2CCCCC2)c(Cl)c1` [Example 19, 5-chloro-6-(((1S,2S,4S)-2-(piperidin-1-yl)-4-(3-(trifluoromethyl)phenyl)cyclohexyl)oxy)-N-(pyrimidin-4-yl)pyridine-3-sulfonamide] gave an IC50 of 0.493 nM.

`CN(C)[C@H]1C[C@@H](c2cccc(OC(F)(F)F)c2)CC[C@@H]1Oc1ncc(S(=O)(=O)Nc2ccncn2)cc1Cl` [Example 13, 5-chloro-6-(((1S,2S,4S)-2-(dimethylamino)-4-(3-(trifluoromethoxy)phenyl)cyclohexyl)oxy)-N-(pyrimidin-4-yl)pyridine-3-sulfonamide] gave an IC50 of 13.8 nM.

Regarding `Cc1nc(O[C@H]2CC[C@H](c3cccc(C(F)(F)F)c3)C[C@@H]2N(C)C)c(F)cc1S(=O)(=O)Nc1ccncn1` [Example 53, 6-(((1S,2S,4S)-2-(Dimethylamino)-4-(3-(trifluoromethyl)phenyl)cyclohexyl)oxy)-5-fluoro-2-methyl-N-(pyrimidin-4-yl)pyridine-3-sulfonamide formate], the IC50 was found to be 0.615 nM.

The molecule `Cc1cc([C@H]2CC[C@H](Oc3ccc(S(=O)(=O)Nc4ccncn4)c(C)n3)[C@@H](N(C)C)C2)cc(C(F)(F)F)c1` [Example 58, 6-(((1S,2S,4S)-2-(dimethylamino)-4-(3-methyl-5-(trifluoromethyl)phenyl)cyclohexyl)oxy)-2-methyl-N-(pyrimidin-4-yl)pyridine-3-sulfonamide] came in with an IC50 of 2.86 nM.

On to `Cc1nc(O[C@H]2CC[C@H](c3cccc(C(F)(F)F)c3C)C[C@@H]2N(C)C)ccc1S(=O)(=O)Nc1ccncn1` [Example 60, 6-(((1S,2S,4S)-2-(dimethylamino)-4-(2-methyl-3-(trifluoromethyl)phenyl)cyclohexyl)oxy)-2-methyl-N-(pyrimidin-4-yl)pyridine-3-sulfonamide], for which the IC50 amounted to 3.51 nM. The IC50 values of the last two molecules are within 1.5-fold of each other.

`O=S(=O)(Nc1ccncn1)c1ccc(N[C@H]2CC[C@H](c3cccc(C(F)(F)F)c3)C[C@@H]2N2CCCC2)nc1` [Example 16, N-(pyrimidin-4-yl)-6-(((1S,2S,4S)-2-(pyrrolidin-1-yl)-4-(3-(trifluoromethyl)phenyl)cyclohexyl)-amino)pyridine-3-sulfonamide formate]: the IC50 came to 25.1 nM.

In the case of `CN(C)[C@H]1C[C@@H](c2cccc(C(F)(F)F)c2)CC[C@@H]1Oc1cc(Cl)c(S(=O)(=O)Nc2ccncn2)cn1` [Example 31, 4-Chloro-6-(((1S,2S,4S)-2-(dimethylamino)-4-(3-(trifluoromethyl)phenyl)cyclohexyl)oxy)-N-(pyrimidin-4-yl)pyridine-3-sulfonamide], the IC50 was determined as 1.89 nM. This IC50 is about 13-fold lower than that of the molecule before.

With `Cc1nc(O[C@H]2CC[C@H](c3cccc(C(F)(F)F)c3)C[C@@H]2N2CCOCC2)ccc1S(=O)(=O)Nc1ccncn1` [Example 55, 2-Methyl-6-(((1S,2S,4S)-2-morpholino-4-(3-(trifluoromethyl)phenyl)cyclohexyl)oxy)-N-(pyrimidin-4-yl)pyridine-3-sulfonamide], the IC50 came to 1.72 nM. This IC50 and that of the molecule before are within 1.5-fold of each other.

Consider `CN(C)[C@H]1C[C@@H](c2ccc(Cl)c(C(F)(F)F)c2)CC[C@@H]1Oc1ccc(S(=O)(=O)Nc2ccncn2)cn1` [Example 12, 6-(((1S,2S,4S)-4-(4-chloro-3-(trifluoromethyl)phenyl)-2-(dimethylamino)cyclohexyl)oxy)-N-(pyrimidin-4-yl)pyridine-3-sulfonamide formate], for which the IC50 is 1.27 nM.

`CN(C)[C@H]1C[C@@H](c2cccc(SC(F)(F)F)c2)CC[C@@H]1Oc1ccc(S(=O)(=O)Nc2ccncn2)cn1` [Example 63, 6-(((1S,2S,4S)-2-(Dimethylamino)-4-(3-((trifluoromethyl)thio)phenyl)cyclohexyl)oxy)-N-(pyrimidin-4-yl)pyridine-3-sulfonamide] yielded a half-inhibitory concentration (IC50) of 0.635 nM. This IC50 lies about 2-fold lower than the previous one.

The molecule `Cc1nc(O[C@H]2CC[C@H](c3cccc(OC(F)(F)F)c3)C[C@@H]2N(C)C)ccc1S(=O)(=O)Nc1ccncn1` [Example 28, 6-(((1S,2S,4S)-2-(Dimethylamino)-4-(3-(trifluoromethoxy)phenyl)cyclohexyl)oxy)-2-methyl-N-(pyrimidin-4-yl)pyridine-3-sulfonamide] registered an IC50 of 4.11 nM.

Turning to `Cc1nc(O[C@H]2CC[C@H](c3cccc(C(F)(F)F)c3)C[C@@H]2N2CCCC2)ccc1S(=O)(=O)Nc1ccncn1` [Example 29, 2-Methyl-N-(pyrimidin-4-yl)-6-(((1S,2S,4S)-2-(pyrrolidin-1-yl)-4-(3-(trifluoromethyl)phenyl)-cyclohexyl)oxy)pyridine-3-sulfonamide], the IC50 is 67.4 nM. Compared with the last molecule, the IC50 is about 16-fold higher.

As to `CN(C)[C@H]1C[C@@H](c2cccc(OC(F)(F)F)c2)CC[C@@H]1Oc1ccc(S(=O)(=O)Nc2ccncn2)cn1` [Example 25, 6-(((1S,2S,4S)-2-(dimethylamino)-4-(3-(trifluoromethoxy)phenyl)cyclohexyl)oxy)-N-(pyrimidin-4-yl)pyridine-3-sulfonamide formate], the IC50 came to 44.8 nM.

The values above are taken from patent publication US12209075B2, “Pyridine-sulfonamide derivatives as sodium channel inhibitors” (GENENTECH, INC., priority 2018, dated 2025).
